Experimental data taken from the NIST ThermoML archive (doi:10.1021/acs.jced.7b00106).

Details: Hot wire method

FC(F)(F)/C=C/Cl [(E)-1-chloro-3,3,3-trifluoroprop-1-ene]
Details | thermal conductivity [W/m/K]
302.53 K, 136 kPa, Gas | 0.01102
302.53 K, 16444 kPa, Liquid | 0.0897
302.53 K, 47194 kPa, Liquid | 0.1006
302.55 K, 122 kPa, Gas | 0.01105
302.55 K, 36223 kPa, Liquid | 0.09702
302.57 K, 8074 kPa, Liquid | 0.08557
302.59 K, 25791 kPa, Liquid | 0.09335
302.6 K, 16014 kPa, Liquid | 0.08919
302.61 K, 11882 kPa, Liquid | 0.08715
302.61 K, 30546 kPa, Liquid | 0.0947
302.62 K, 142 kPa, Gas | 0.01123
302.62 K, 7818 kPa, Liquid | 0.08552
302.64 K, 122 kPa, Gas | 0.01131
302.64 K, 131 kPa, Gas | 0.01128
302.64 K, 139 kPa, Gas | 0.01119
302.65 K, 7853 kPa, Liquid | 0.08571
302.65 K, 25491 kPa, Liquid | 0.09284
302.66 K, 20510 kPa, Liquid | 0.09077
302.68 K, 16449 kPa, Liquid | 0.08922
302.7 K, 373 kPa, Liquid | 0.08122
302.72 K, 4080 kPa, Liquid | 0.08356
302.72 K, 8075 kPa, Liquid | 0.08531
302.75 K, 11886 kPa, Liquid | 0.08659
302.75 K, 16005 kPa, Liquid | 0.08846
302.75 K, 62930 kPa, Liquid | 0.106
302.76 K, 303 kPa, Liquid | 0.08187
302.76 K, 65463 kPa, Liquid | 0.1068
302.78 K, 7822 kPa, Liquid | 0.08491
302.79 K, 56432 kPa, Liquid | 0.1045
302.81 K, 7852 kPa, Liquid | 0.08507
302.82 K, 48051 kPa, Liquid | 0.1011
302.83 K, 48410 kPa, Liquid | 0.1013
302.85 K, 131 kPa, Gas | 0.0108
302.85 K, 136 kPa, Gas | 0.01096
302.86 K, 122 kPa, Gas | 0.011
302.87 K, 381 kPa, Liquid | 0.08077
302.88 K, 4074 kPa, Liquid | 0.08317
302.91 K, 62949 kPa, Liquid | 0.1057
302.92 K, 299 kPa, Liquid | 0.08155
302.92 K, 36387 kPa, Liquid | 0.09706
302.92 K, 65445 kPa, Liquid | 0.1067
302.93 K, 41986 kPa, Liquid | 0.09906
302.93 K, 47187 kPa, Liquid | 0.1008
302.95 K, 36224 kPa, Liquid | 0.09698
302.95 K, 56429 kPa, Liquid | 0.1038
302.98 K, 48055 kPa, Liquid | 0.1009
303 K, 48417 kPa, Liquid | 0.101
303.02 K, 25798 kPa, Liquid | 0.09309
303.03 K, 30542 kPa, Liquid | 0.09496
303.04 K, 142 kPa, Gas | 0.01123
303.06 K, 137 kPa, Gas | 0.01133
303.07 K, 121 kPa, Gas | 0.01128
303.07 K, 131 kPa, Gas | 0.01133
303.08 K, 25486 kPa, Liquid | 0.09308
303.09 K, 20509 kPa, Liquid | 0.09124
303.09 K, 41994 kPa, Liquid | 0.09863
303.09 K, 47182 kPa, Liquid | 0.1005
303.12 K, 16450 kPa, Liquid | 0.08937
303.12 K, 36213 kPa, Liquid | 0.09661
303.17 K, 135 kPa, Gas | 0.01096
303.18 K, 122 kPa, Gas | 0.01101
303.18 K, 132 kPa, Gas | 0.0107
303.18 K, 8071 kPa, Liquid | 0.0855
303.2 K, 16008 kPa, Liquid | 0.08894
303.2 K, 25794 kPa, Liquid | 0.0928
303.21 K, 11886 kPa, Liquid | 0.08665
303.21 K, 30558 kPa, Liquid | 0.09462
303.24 K, 7824 kPa, Liquid | 0.08506
303.25 K, 25489 kPa, Liquid | 0.09272
303.27 K, 20510 kPa, Liquid | 0.09093
303.28 K, 7854 kPa, Liquid | 0.08529
303.31 K, 16446 kPa, Liquid | 0.08918
303.31 K, 62940 kPa, Liquid | 0.1059
303.32 K, 65424 kPa, Liquid | 0.1066
303.34 K, 383 kPa, Liquid | 0.08114
303.35 K, 4071 kPa, Liquid | 0.08347
303.36 K, 56409 kPa, Liquid | 0.1043
303.38 K, 8070 kPa, Liquid | 0.08486
303.38 K, 16014 kPa, Liquid | 0.08858
303.39 K, 11885 kPa, Liquid | 0.08675
303.4 K, 295 kPa, Liquid | 0.08173
303.4 K, 48041 kPa, Liquid | 0.1012
303.42 K, 48413 kPa, Liquid | 0.1013
303.44 K, 7814 kPa, Liquid | 0.0847
303.47 K, 7846 kPa, Liquid | 0.0848
303.5 K, 136 kPa, Gas | 0.01133
303.5 K, 62957 kPa, Liquid | 0.1058
303.5 K, 65425 kPa, Liquid | 0.1067
303.51 K, 132 kPa, Gas | 0.01137
303.51 K, 41983 kPa, Liquid | 0.09892
303.51 K, 47179 kPa, Liquid | 0.1008
303.53 K, 122 kPa, Gas | 0.01133
303.54 K, 4064 kPa, Liquid | 0.08281
303.54 K, 56404 kPa, Liquid | 0.1037
303.56 K, 36213 kPa, Liquid | 0.09672
303.59 K, 293 kPa, Liquid | 0.08112
303.6 K, 48039 kPa, Liquid | 0.101
303.61 K, 48415 kPa, Liquid | 0.101
303.71 K, 41980 kPa, Liquid | 0.09862
303.71 K, 47178 kPa, Liquid | 0.1004
303.76 K, 36210 kPa, Liquid | 0.09644
303.97 K, 136 kPa, Gas | 0.01134
304 K, 121 kPa, Gas | 0.01134
304.01 K, 131 kPa, Gas | 0.01133
304.5 K, 135 kPa, Gas | 0.01137
304.51 K, 122 kPa, Gas | 0.01139
304.53 K, 130 kPa, Gas | 0.01127
305.03 K, 135 kPa, Gas | 0.0114
305.05 K, 121 kPa, Gas | 0.0114
305.16 K, 131 kPa, Gas | 0.01092
305.6 K, 134 kPa, Gas | 0.01142
305.62 K, 122 kPa, Gas | 0.01143
305.74 K, 132 kPa, Gas | 0.01105
311.53 K, 157 kPa, Gas | 0.01177
311.84 K, 158 kPa, Gas | 0.01185
311.93 K, 134 kPa, Gas | 0.01187
312.17 K, 165 kPa, Gas | 0.01181
312.19 K, 159 kPa, Gas | 0.01198
312.22 K, 98 kPa, Gas | 0.012
312.23 K, 134 kPa, Gas | 0.01169
312.26 K, 135 kPa, Gas | 0.01202
312.37 K, 191 kPa, Gas | 0.012
312.46 K, 165 kPa, Gas | 0.01175
312.5 K, 133 kPa, Gas | 0.0117
312.53 K, 160 kPa, Gas | 0.01191
312.56 K, 98 kPa, Gas | 0.01197
312.64 K, 135 kPa, Gas | 0.01197
312.67 K, 191 kPa, Gas | 0.01194
312.76 K, 166 kPa, Gas | 0.01173
312.79 K, 131 kPa, Gas | 0.01152
312.81 K, 96 kPa, Gas | 0.01168
312.82 K, 133 kPa, Gas | 0.01159
312.93 K, 97 kPa, Gas | 0.01203
312.94 K, 162 kPa, Gas | 0.01192
312.97 K, 190 kPa, Gas | 0.01196
313.06 K, 134 kPa, Gas | 0.01201
313.06 K, 195 kPa, Gas | 0.01197
313.07 K, 167 kPa, Gas | 0.01173
313.11 K, 96 kPa, Gas | 0.0116
313.11 K, 130 kPa, Gas | 0.0115
313.15 K, 132 kPa, Gas | 0.01155
313.31 K, 97 kPa, Gas | 0.01207
313.35 K, 195 kPa, Gas | 0.01196
313.36 K, 163 kPa, Gas | 0.01197
313.42 K, 96 kPa, Gas | 0.01157
